Data from PubChem BioAssay (NCI).
Several values for one entry are separate records, joined by “and”; a condition that tells them apart may be missing. Equal values may be shown once.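 How tested: cells in 96-well plates exposed to compound for 48 hours at five concentrations. GI50: concentration for 50% inhibition of growth. TGI denotes the concentration required for complete inhibition of growth.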

Tests used:
Assay in all cases: inhibition of tumour cell growth, NCI panel, 48 h
NCI/ADR-RES ovarian = system: NCI/ADR-RES ovarian
SF-539 CNS = system: SF-539 CNS
M14 melanoma = system: M14 melanoma
LOX IMVI melanoma = system: LOX IMVI melanoma
NCI-H23 lung = system: NCI-H23 lung
MALME-3M melanoma = system: MALME-3M melanoma
SNB-75 CNS = system: SNB-75 CNS
OVCAR-4 ovarian = system: OVCAR-4 ovarian
RPMI-8226 leukemia = system: RPMI-8226 leukemia
NCI-H226 lung = system: NCI-H226 lung

SMILES	GI50 (NCI/ADR-RES ovarian) [µM]	TGI (NCI/ADR-RES ovarian)	GI50 (SF-539 CNS) [nM]	TGI (SF-539 CNS) [µM]	GI50 (M14 melanoma) [nM]	TGI (M14 melanoma)	GI50 (LOX IMVI melanoma) [nM]	TGI (LOX IMVI melanoma) [µM]	GI50 (NCI-H23 lung) [nM]	TGI (NCI-H23 lung)	GI50 (MALME-3M melanoma) [nM]	TGI (MALME-3M melanoma)	GI50 (SNB-75 CNS) [nM]	TGI (SNB-75 CNS) [µM]	GI50 (OVCAR-4 ovarian) [nM]	TGI (OVCAR-4 ovarian)	GI50 (RPMI-8226 leukemia) [nM]	TGI (RPMI-8226 leukemia)	GI50 (NCI-H226 lung) [nM]	TGI (NCI-H226 lung) [µM]
CCCCn1c(=O)c(/C=C/C(=O)/C=C/c2ccc(O)c(OC)c2)cc2ccc(Cl)cc21	2.9	10.7 µM	1620	3.18	1860	4.17 µM	1510	2.84	2060	4.98 µM	2140	4.92 µM	2260	6.22	2340	9.81 µM	2460	7.62 µM	1770	4.23
COc1ccc(CNCCCN2C(=O)c3ccc4c5c(ccc(c35)C2=O)C(=O)N(CCCNCCCCNCCCN)C4=O)c(OC)c1OC	6.01	49.7 µM	2230	5.3	1660	3.57 µM	654	7.83	1350	4.22 µM	1210	2.76 µM	1270	3.63	1020	3.08 µM	2700	12.2 µM	2110	16.4
CCc1nc2cc(/C=C/C(=O)NO)c(F)cc2c(=O)n1CCc1ccccc1	0.227	2.54 µM	874	5.8	1150	3.8 µM	488	1.97	1170	4.32 µM	944	10.4 µM	2410	17.3	689	17.8 µM	654	44.8 µM	1250	5.98
Nc1nc(N)c2ncn(Cc3c(Cl)cccc3Cl)c2n1		> 100 µM		> 100		> 100 µM		> 100		> 100 µM		> 100 µM		48.7		> 100 µM		> 100 µM		> 100
Cc1occc1C(=S)Nc1ccc(Cl)c(C(=O)OCC2CC2)c1		> 100 µM		> 100		> 100 µM		> 100		> 100 µM		> 100 µM		70.1		> 100 µM		85.5 µM		> 100
CC(C)C(OC(=O)c1cc(NC(=S)c2ccccc2)ccc1Cl)C(C)C		> 100 µM		65.5		> 84.8 µM		70.4		35.7 µM		> 57.8 µM		59.1		> 100 µM		> 73.5 µM		45.5
COc1cc2c3c(n(CCCn4cccn4)c(=O)c2cc1OC)-c1cc2c(cc1C3=O)OCO2	1.3	16.5 µM	560	5.08	461	5.07 µM	728	11.1	807	4.38 µM	9400	> 96.7 µM	1530	15.4	19700	66.1 µM	2440	22.4 µM	922	9.51
Cc1ccc2nc(NC(=O)CSC(=S)N3CCN(Cc4ccccc4)CC3)sc2c1	> 100	> 100 µM	> 100000	> 100	> 100000	> 100 µM		> 21	> 100000	> 100 µM	> 100000	> 100 µM	> 100000	> 100	> 100000	> 100 µM	75900	> 100 µM	> 100000	> 100
CCCCCCCCOC(=O)c1cc(O)c(O)c(O)c1	1.52	10.2 µM	2520	18.2	2150	9.19 µM	1330	10.6	2630	11.5 µM	1740	9.25 µM	2710	37.6	2630	> 100 µM	511	> 100 µM	8510	29
COc1ccc(S(=O)(=O)N2CCCCC2)cc1NC(=O)c1[nH]c(C)c2c1CCCCC2=O	3.67	> 100 µM	2310	> 100	1490	> 100 µM	887	2.79	3110	> 100 µM	1760	93.8 µM	141	3.46	2110	> 100 µM	1460	32.4 µM	1270	34.7
COc1cc2c(cc1OCCN1C(=O)c3cccc4cccc(c34)C1=O)N=C[C@@H]1CCCN1C2=O	22.5	45.8 µM and 56.3 µM		17.3	22500	15.7 µM and 70.6 µM		12.3	16800	20.2 µM and 32.3 µM	11700	15.7 µM and 24.5 µM		45		50 µM and 39 µM	26000	32 µM and > 100 µM		32.4
O=C1c2ccccc2C(=O)c2c1c(NCCNCCO)c1cc[nH]c1c2NCCNCCO	> 100	> 100 µM	1250	14.5	7270	> 55.1 µM	1530	> 100	7900	> 27.9 µM	1800	5.16 µM	9770	> 100	14200	45.2 µM	13900	47.8 µM	1780	13.5
